# Reference: patent US10323078B2, “Isolated peptides and fragments thereof from fibrinogen for use as drugs, particularly in skin inflammatory diseases” (Universite Paris Descartes, priority 2015, dated 2019)
# B1: MKRMVSWSFHKLKTMKHLLLLLLCVFLVKSQGVNDNEEGFFSARGHRPLDKKREEAPSLRPAPPPISGGGYRARPAKAAATQKKVERKAPDAGGCLHADPDLGVLC (protein)
# chain: MKRMVSWSFHKLKTMKHLLLLLLCVFLVKSQGVNDNEEGFFSARGHRPLDKKREEAPSLRPAPPPISGGGRARPAKAAATQKKVERKAPDAGGCLHADPDLGVLCMKRMVSWSFHKLKTMKHLLLLLLCVFLVKSQGVNDNEEGFFSARGHRPLDKKREEAPSLRPAPPPISGGGYRARPAKAAATQKKVERKAPDAGGCLHADPDLGVLC
# modifications: GST fusion; fragment Fg1
# notes: fragment of Bß chain of human fibrinogen having 106 amino acids; recombinant GST-fused peptide expressed in E. coli
# Legend:
# Pfg [1] = experiment: Binding of biotinylated Pfg to immobilized fibrinogen (polystyrene plate); design: species or system Propionibacterium acnes; settings: various quantities of fibrinogen immobilized; biotinylated Pfg 0.1 μg/ml, 2 h at 23° C.
# Description: FIG. 5: Binding of P. acnes surface proteins to fibrinogen. (A) Various quantities of human fibrinogen (hFg) and bovine fibrinogen (bFg) were immobilized onto a 96-well polystyrene plate at 4° C. for 18 h and incubated with biotinylated Pfg at 0.1 μg/ml for 2 h at 23° C. Bovine serum albumin (BSA) was used as negative control. Bound material was detected by using the HRP-streptavidin conjugate. Peroxidase activity was measured by using the ABTS substrate at 405 nm. Proteins (10 μg per lane) were separated by 10% SDS-PAGE and detected by (B) Commassie blue staining, and transferred to nitrocellulose membrane and incubated with (C) HRP-streptavidine alone, and (D) biotinylated Pfg (0.1 μg/ml). Lanes 1: molecular weight standards. Lane 2: BSA. […]
# To characterize the interaction between P. acnes and ligands, we used biotinylated molecules in quantitative and qualitative assays. […] For quantitative analysis, unlabeled protein were diluted into 50 mM carbonate-bicarbonate, pH 9.6 buffer to yield a protein concentration ranging from 0.01 to 50 μg/ml, and then immobilized to 96-well polystyrene plates at 4° C. overnight. […] After washing, bound peroxidase was detected using the chromogenic peroxidase substrate ABTS. […] Binding activity was detected by incubating the membranes with 20 ml of PBT containing biotinylated proteins (0.1 μg/ml) for 2 h at room temperature followed by three washes with PBT. […]
# Pfg [2] = experiment: Western ligand blot with biotinylated Pfg; assay type: binding, Propionibacterium acnes; settings: biotinylated Pfg 0.1 μg/ml
Molecule,Binding of biotinylated Pfg to immobilized fibrinogen (Pfg [1]),"Recognition by biotinylated Pfg after electrophoretic separation of fibrinogen (Pfg [2]; 10 μg per lane, 10% SDS-PAGE)","Recognition of GST-fused recombinant Bß fibrinogen fragments by biotinylated Pfg (Pfg [2]; E. coli total protein after IPTG induction, 12.5% SDS-PAGE)"
"human fibrinogen: purified commercial human fibrinogen (Sigma), glycoprotein hexamer of Aα, Bß and γ chains",dose-dependent with a higher affinity for hFg,recognized by Pfg,
B1,,,recognized
